Test results published in patent US11299453B2 (Universität zu Köln, priority 2017, dated 2022).

Key:
[1] = tested on: αPIG-AT25 miPSC-derived cardiomyocytes; assay: Cell viability (PrestoBlue) of miPSC-derived cardiomyocytes; format: cell-based, murine
Method: The differentiation of transgenic mPSCs was initiated in mass cultures as briefly described below. One million cells were transferred per non-adhering 10 cm dish with 14 ml differentiation medium composed of Iscove's Modified Dulbecco's Medium (IMDM) with GlutaMAX (Life Technologies) supplemented with 20% FBS, 1×NEAA and 100 μM β-ME. Embryoid bodies (EBs) from day 2 of differentiation were transferred in a 250 ml spinner flask (CELLSPIN 250, Integra Biosciences, Fernwald, Germany) with a density of 3×10^4 EBs per 200 ml of differentiation medium. On the first 2 days of differentiation medium was supplemented with 50 μg/ml L-ascorbic acid phosphate (AA, Wako pure chemicals industry, Japan) in order to promote the development of cardiac cells. For the selection of GFP-expressing CMs, 50 ml of the medium was exchanged with fresh differentiation medium and 8 μg/ml puromycin (Life Technologies) were supplemented on day 9 of differentiation. Two days later, the cardiac clusters were transferred on non-adhering 10 cm dishes with fresh differentiation medium containing 8 μg/ml puromycin. In the further course of differentiation medium was exchanged every 2-3 days. If not otherwise specified, the purification of GFP-positive CMs with puromycin was continued until day 16 of differentiation. For single cell analyses and transfer of PSC-derived CMs on cell culture plates, cardiac clusters were dissociated with 0.25% trypsin-EDTA (Life Technologies) supplemented with 50 U/ml DNase I (AppliChem, Darmstadt, Germany) for 20-30 min at 37° C. The mPSC-derived CMs were filtered through a polyamide membrane with […] pore size (Sefar, Heiden, Switzerland). Cell numbers were determined with a Neubauer hemocytometer and cells were stored on ice until further use.
Serial dilutions of DMSO stock solutions of PluriSIn #1 (Sigma-Aldrich, catalog number SML0682) or one of small molecules SM1-SM10, were prepared from 20 mM stock solutions with cell culture medium. Murine PSCs were dissociated with 0.05% trypsin-EDTA, seeded on 0.1% gelatin-coated 96-well plates with a density of 5000 cells/well and cultured in maintenance medium supplemented with 1000 U/ml of mLIF. After 1 day, cells were incubated with 40 μM PluriSIn #1 and derivatives for 72 h or with 0.01-25 μM SMs for 48 h, respectively. For treatment of corresponding PSC-derived CMs with SMs, puromycin-selected miPSC-CMs from day 14 of differentiation were dissociated with 0.25% trypsin-EDTA as described above and plated on 96-well plates (5×10^4 cells/well) which were pre-coated with 5 μg/ml fibronectin (PromoCell, Heidelberg, Germany). After culturing miPSC-CMs with 8 μg/ml puromycin for 2 more days, they were incubated in differentiation medium supplemented with 0.1-100 μM of SMs for 48-72 h. Following small molecule treatment, cell viability was determined with PrestoBlue cell viability reagent (Life Technologies). To this end, cells were washed with PBS (with calcium and magnesium, Life Technologies) and incubated with PrestoBlue reagent diluted in cell culture medium for 40 min at 37° C.
Fluorescence intensities correlating with the number of viable cells in the wells were measured in black flat-bottom 96-well plates (Greiner Bio-One, Kremsmünster, Austria) with a GeniosPro microplate reader (Tecan, Männedorf, Schweiz).
The selectivity of compounds was investigated by comparing their cytotoxicity against undifferentiated iPSCs and iPSC-derived CMs. Murine iPSCs αPIG-AT25 were incubated for 48 h with compounds SM1, SM2, SM4, SM5, SM6 and SM8 in concentrations of 0.01 to 10 μM. Cell culture and cardiac differentiation were performed as described above. Experiments were run at least in quadruplicate. The cell viability was determined using PrestoBlue cell viability reagent.
The viability of salicylic diamine-treated CMs was confirmed by 72 h of exposure to concentrations of 0.01 μM, 0.1 μM, 1 μM, 10 μM and 25 μM of compounds SM1, SM2, SM4, SM5, SM6 and SM8.

[2] = tested on: unpurified EBs of murine iPSCs; assay: Flow cytometry (cTnT) and cell yield of unpurified EBs; format: cell-based; conditions: for cTnT+ CM population / fold increase of CM purity (cTnT+) compared to DMSO-treated control / reduction of total cell yield relative to DMSO control: day 9 to day 16: SM6 1 μM then 5 μM from day 14, puromycin 8 μg/ml
Method: Purifying the whole CM population including GFP-negative CMs in murine PSC-derived EBs was tested with SM6 as well. EBs from day 9 of differentiation were treated starting with 1 μM of SM6 for 5 days followed by treatment with 5 μM from day 14 until day 16 of differentiation. The percentage of CM population in EBs was monitored by flow cytometry and the amount of contaminating PSCs was quantified by colony formation assay as described above. Fluorescence images of PSC-derived cell aggregates were captured with a Zeiss Axiovert 200M fluorescence microscope and analyzed with Zeiss Axiovision 4.5 software.
Determination of CM purity in the cell population was performed by flow cytometric analysis. PSC-derived EBs or cardiac clusters were dissociated with 0.25% trypsin-EDTA. Dead cells were stained with LIVE/DEAD fixable dead cell stain kit (Life Technologies) prior to cell fixation using in 4% PFA for 15 min. Immunological staining of cardiac Troponin T (cTnT) was performed in order to detect the total CM population including GFP-negative CMs. […] An anti-cTnT mouse antibody (sc-20025, Santa Cruz, Dallas, USA) and the corresponding isotype control (sc-3878, Santa Cruz) were diluted 1:50 in 0.8% BSA in PBS with 1% saponin and incubated for 30 min at 4° C., respectively. After washing the cells with PBS, cells were incubated with an AF555-conjugated secondary antibody (1:100, A21422, Life Technologies) in 0.8% BSA and 1% saponin in PBS for 1 h at 4° C.
Cells were measured with an Attune acoustic focusing cytometer (Life Technologies) and data was analyzed with the Attune Cytometric software v1.2.5 (Life Technologies). Marker expression was analyzed in a gated population of 10^4 viable cells.
In order to determine whether it is possible to entirely replace puromycin pre-treatment with SM6 and thus circumvent the need for genetic manipulation of PSCs to enable CM selection, the SM6 was supplemented to the differentiation medium of miPSCs from day 9 onwards starting with a concentration of 1 μM which was increased to 5 μM from day 14 until day 16 of differentiation, as is schematically illustrated in FIG. 8a). Control cells received 0.025% DMSO or 8 μg/ml puromycin during this time period (day 9 to day 16 of differentiation).

| SMILES | effect on the viability of cardiomyocytes ([1]; 10 μM, two day-treatment) | toxicity to differentiated cardiomyocytes ([1]; summary in description) | fold higher yield of cTnT+ CMs compared to the treatment with puromycin ([2]; SM6 1 μM then 5 μM from day 14, p<0.01) | cTnT+ CM population [2] | fold increase of CM purity (cTnT+) compared to DMSO-treated control [2] | reduction of total cell yield relative to DMSO control [2] | CM yield higher compared to the DMSO-treated control group ([2]; in three out of five experiments) | decrease of cardiomyocyte viability, in average over SM1, SM4 and SM8 ([1]; 10 μM, 72 h of exposure) |
| --- | --- | --- | --- | --- | --- | --- | --- | --- |
| Oc1ccccc1CN[C@@H]1CCCC[C@H]1NCc1ccccc1O [SM6, (1R,2R)-N,N′-di(2-hydroxybenzyl)-1,2-diaminocyclohexane] | no significant effect | not toxic | 2.72±1.61 fold | 77.57±12.26% | 2.56±1.25 fold | 56.6±10.44% | 31-86% |  |
| Oc1c(CNC2CCCC[C@@H]2NCc2cccc(-c3ccccc3)c2O)cccc1-c1ccccc1 (stereo partly drawn) [SM8, (1S,2R)-N,N′-di[(2-hydroxy-3-phenyl)-benzyl]-1,2-diaminocyclohexane] |  |  |  |  |  |  |  | 79.79±14.72% |
| COc1ccc(C[C@H](N)C(=O)N[C@H]2[C@@H](O)[C@H](n3cnc4c(N(C)C)ncnc43)O[C@@H]2CO)cc1 [puromycin, reference compound] |  |  |  | 93.26±3.05% | 3.08±1.42 fold | 92.17±3.53% |  |  |
